From EP2567959B1, “6-(4-HYDROXY-PHENYL)-3-STYRYL-1H-PYRAZOLO[3,4-B]PYRIDINE-4-CARBOXYLIC ACID AMIDE DERIVATIVES AS KINASE INHIBITORS” (SANOFI, priority 2011, dated 2013) come the findings set out here.

The term inhibition denotes the share of the control response that was lost under treatment.

In this experiment the target is T1, human full-length recombinant PKC βII (Homo sapiens, UniProt P05771).
T1 construct: Active human full-length recombinant PKC βII; purchased Invitrogen GmbH, Darmstadt, Germany
T1 sequence (P05771 1-673 isoform P05771-2): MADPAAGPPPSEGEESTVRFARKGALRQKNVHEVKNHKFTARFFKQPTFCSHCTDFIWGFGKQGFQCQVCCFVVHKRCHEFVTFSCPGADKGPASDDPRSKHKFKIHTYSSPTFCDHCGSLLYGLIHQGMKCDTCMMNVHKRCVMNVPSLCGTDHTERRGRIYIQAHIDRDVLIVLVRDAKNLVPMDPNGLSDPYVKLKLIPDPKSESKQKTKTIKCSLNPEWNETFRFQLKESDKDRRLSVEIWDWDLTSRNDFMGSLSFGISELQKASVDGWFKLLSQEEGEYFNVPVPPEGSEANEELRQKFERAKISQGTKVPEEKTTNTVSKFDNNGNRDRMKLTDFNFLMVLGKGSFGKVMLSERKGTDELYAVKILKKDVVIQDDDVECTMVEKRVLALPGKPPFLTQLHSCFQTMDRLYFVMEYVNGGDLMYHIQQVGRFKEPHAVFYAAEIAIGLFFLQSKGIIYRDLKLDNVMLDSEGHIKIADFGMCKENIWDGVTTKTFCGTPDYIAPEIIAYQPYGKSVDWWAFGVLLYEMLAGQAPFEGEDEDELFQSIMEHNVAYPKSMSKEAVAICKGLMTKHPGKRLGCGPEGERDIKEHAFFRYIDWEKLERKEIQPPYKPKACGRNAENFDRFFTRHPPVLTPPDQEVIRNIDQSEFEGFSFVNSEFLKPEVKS
In words: Determination of PKC βII inhibition (Caliper mobility-shift kinase assay, phosphorylation of fluorescein peptide substrate). The experiment is classed as biochemical. To be noted: final compound concentration 1.14 µM (±0.15 µM); 60 min incubation at 32 °C. Here is the method:
Determination of PKC βII inhibition
PKC βII inhibition was determined according to the following protocol:
Active human full-length recombinant PKC βII and the peptide substrate, Fluorescein-RFARKGSLRQKNV, were purchased from Invitrogen GmbH, Darmstadt, Germany. Adenosine-5'-triphosphate (ATP), bovine serum albumine (BSA), dimethylsulphoxide (DMSO), 4-(2-hydroxyethyl)piperazine-1-ethanesulfonic acid (Hepes), Triton X-100, 1,2-Dioleoyl-sn-glycerol (DAG), L-α-Phosphatidyl-L-serine (PS), calcium chloride (CaCl2), and Pluronic F-68 were purchased from Sigma-Aldrich, Munich, Germany. Magnesium chloride, 1 M sodium hydroxide solution, 1M hydrochloric acid solution and EDTA were obtained from Merck Biosciences, Darmstadt, Germany.
Test compounds were diluted to three times the test concentration in buffer 1 (30 mM Hepes-NaOH, pH 7.4, 0.01 % Pluronic F-68 and 3 % (v/v) DMSO). The PKC βII enzyme was diluted to a concentration of 30 ng/ml in buffer 2 (30 mM Hepes-NaOH, pH 7.4, 15 mM MgCl2,150 µM CaCl2, 150 µg/ml PS, 60 µg/ml DAG, and 0.045 % (w/v) Triton X-100). The peptide substrate and ATP were diluted to concentrations of 3 µM and 120 µM, respectively, in buffer 2. Two µl of the compound solution were mixed with 2 µl of the diluted enzyme in a 384-well small volume microtiter plate (Greiner, Bio-One, Frickenhausen, Germany), and the kinase reaction was initiated by addition of 2 µl of the solution containing peptide substrate and ATP. After 60 min incubation at 32 °C, the reaction was stopped by addition of 20 µl of a solution containing 130 mM Hepes-NaOH, pH 7.4, 0.0195 % (v/v) Brij-35, 6.5 mM EDTA, 0.13 % chip coating reagent 3 (Caliper Lifescience Inc, Hopkinton, MA) and 6.5 % (v/v) DMSO. Phosphorylation of the substrate peptide was then detected on a Caliper 3000 instrument essentially as described by Pommereau et al (J. Biomol. Screening 2004, 9(5), 409-416). Separation conditions were as follows: Pressure -0.8 psi, upstream voltage - 3000 V, downstream voltage -800 V. Positive controls (buffer 1 instead of compound) and negative controls (buffer 1 instead of compound and buffer 2 instead of kinase solution) were run in parallel on each plate. Fractional turnover (R) was determined as the height of the peak of the phosphorylated peptide product divided by the sum of the unphosphorylated substrate and phosphorylated product peak heights. Percent-inhibition values for the test compounds were determined using the formula % Inhibition = 100*(1-(Rcompound-Rnegative control)/(Rpositive control-Rnegative control). [formula]
In the following table % inhibition values observed with example compounds at a final concentration of 1.14 µM (±0.15 µM) are listed: […]
Consider `Cc1ccc(/C=C/c2n[nH]c3nc(-c4ccc(O)cc4)cc(C(=O)N4CCNCC4)c23)c(C)c1` [Example 49, [3-[(E)-2-(2,4-Dimethylphenyl)-vinyl]-6-(4-hydroxy-phenyl)-1H-pyrazolo[3,4-b]pyridin-4-yl]-piperazin-1-yl-methanone], for which the inhibition at 1.14 µM came to 88%.
For `Cc1ccc(C)c(/C=C/c2n[nH]c3nc(-c4ccc(O)cc4)cc(C(=O)N4CCNCC4)c23)c1` [Example 50, [3-[(E)-2-(2,5-Dimethylphenyl)-vinyl]-6-(4-hydroxy-phenyl)-1H-pyrazolo[3,4-b]pyridin-4-yl]-piperazin-1-yl-methanone] the value was 92%; for `CC(C)c1ccc(/C=C/c2n[nH]c3nc(-c4ccc(O)cc4)cc(C(=O)N4CCNCC4)c23)cc1` [Example 51, {6-(4-Hydroxy-phenyl)-3-[(E)-2-(4-isopropyl-phenyl)-vinyl]-1H-pyrazolo[3,4-b]pyridin-4-yl}-piperazin-1-yl-methanone], 94%; for `O=C(c1cc(-c2ccc(O)cc2)nc2[nH]nc(/C=C/c3ccc(F)cc3Cl)c12)N1CCNCC1` [Example 52, [3-[(E)-2-(2-Chloro-4-fluorophenyl)-vinyl]-6-(4-hydroxy-phenyl)-1H-pyrazolo[3,4-b]pyridin-4-yl]-piperazin-1-yl-methanone], 91%.
The same measure for `CCc1ccc(/C=C/c2n[nH]c3nc(-c4ccc(O)cc4)cc(C(=O)N4CCNCC4)c23)cc1` [Example 53, [3-[(E)-2-(4-Ethyl-phenyl)-vinyl]-6-(4-hydroxy-phenyl)-1H-pyrazolo[3,4-b]pyridin-4-yl]-piperazin-1-yl-methanone]: 95%.
`CC(C)(C)c1ccc(/C=C/c2n[nH]c3nc(-c4ccc(O)cc4)cc(C(=O)N4CCNCC4)c23)cc1` [Example 54, [3-[(E)-2-(4-tert-Butyl-phenyl)-vinyl]-6-(4-hydroxy-phenyl)-1H-pyrazolo[3,4-b]pyridin-4-yl]-piperazin-1-yl-methanone]: the inhibition at 1.14 µM is 95%.
For `Cc1ccc(/C=C/c2n[nH]c3nc(-c4ccc(O)cc4)cc(C(=O)N4CCNCC4)c23)cc1F` [Example 55, [3-[(E)-2-(3-Fluoro-4-methyl-phenyl)-vinyl]-6-(4-hydroxy-phenyl)-1H-pyrazolo[3,4-b]pyridin-4-yl]-piperazin-1-yl-methanone] the value was 76%; for `COc1cccc(/C=C/c2n[nH]c3nc(-c4ccc(O)cc4)cc(C(=O)N4CCNCC4)c23)c1` [Example 56, {6-(4-Hydroxy-phenyl)-3-[(E)-2-(3-methoxyphenyl)-vinyl]-1H-pyrazolo[3,4-b]pyridin-4-yl}-piperazin-1-yl-methanone], 100%.
The same measure for `CC(=O)c1ccc(/C=C/c2n[nH]c3nc(-c4ccc(O)cc4)cc(C(=O)N4CCNCC4)c23)cc1` [Example 57, 1-(4-{(E)-2-[6-(4-Hydroxy-phenyl)-4-(piperazine-1-carbonyl)-1H-pyrazolo[3,4-b]pyridin-3-yl]-vinyl}-phenyl)-ethanone]: 98%; for `O=C(c1cc(-c2ccc(O)cc2)nc2[nH]nc(/C=C/c3ccc(OC(F)(F)F)cc3)c12)N1CCNCC1` [Example 58, {6-(4-Hydroxyphenyl)-3-[(E)-2-(4-trifluorome-thoxy-phenyl)-vinyl]-1H-pyrazo-lo[3,4-b]pyridin-4-yl}-piperazin-1-yl-methanone]: 89%.
The same measure for `O=C(c1cc(-c2ccc(O)cc2)nc2[nH]nc(/C=C/c3ccc(F)c(F)c3)c12)N1CCNCC1` [Example 59, [3-[(E)-2-(3,4-Difluoro-phenyl)-vinyl]-6-(4-hydroxy-phenyl)-1H-pyrazolo[3,4-b]pyridin-4-yl]-piperazin-1-yl-methanone]: 97%.
In the case of `COc1ccccc1/C=C/c1n[nH]c2nc(-c3ccc(O)cc3)cc(C(=O)N3CCNCC3)c12` [Example 60, {6-(4-hydroxy-phenyl)-3-[(E)-2-(2-methoxy-phenyl)-vinyl]-1H-pyrazolo[3,4-b]pyridin-4-yl}-piperazin-1-yl-methanone], the inhibition at 1.14 µM is 98%.
On to `Cc1cc(F)ccc1/C=C/c1n[nH]c2nc(-c3ccc(O)cc3)cc(C(=O)N3CCNCC3)c12` [Example 61, [3-[(E)-2-(4-Fluoro-2-methyl-phenyl)-vinyl]-6-(4-hydroxy-phenyl)-1H-pyrazolo[3,4-b]pyridin-4-yl]-piperazin-1-yl-methanone], for which the inhibition at 1.14 µM came to 86%.
For `COc1cc(/C=C/c2n[nH]c3nc(-c4ccc(O)cc4)cc(C(=O)N4CCNCC4)c23)cc(OC)c1OC` [Example 62, {6-(4-hydroxy-phenyl)-3-[(E)-2-(3,4,5-trimethoxy-phenyl)-vinyl]-1H-pyrazolo[3,4-b]pyridin-4-yl}-piperazin-1-yl-methanone] the value was 98%; for `Cc1ccc(/C=C/c2n[nH]c3nc(-c4ccc(O)cc4)cc(C(=O)N4CCNCC4)c23)c(F)c1` [Example 63, [3-[(E)-2-(2-Fluoro-4-methyl-phenyl)-vinyl]-6-(4-hydroxy-phenyl)-1H-pyrazolo[3,4-b]pyridin-4-yl]-piperazin-1-yl-methanone], 97%.
For `O=C(c1cc(-c2ccc(O)cc2)nc2[nH]nc(/C=C/c3ccc4c(c3)CCO4)c12)N1CCNCC1` [Example 64, [3-[(E)-2-(2,3-Dihydrobenzofuran-5-yl)-vinyl]-6-(4-hydroxy-phenyl)-1H-pyrazolo[3,4-b]pyridin-4-yl]-piperazin-1-yl-methanone] the value was 99%; for `O=C(c1cc(-c2ccc(O)cc2)nc2[nH]nc(/C=C/c3ccc4c(c3)OCO4)c12)N1CCNCC1` [Example 65, [3-((E)-2-Benzo[1,3]dioxol-5-yl-vinyl)-6-(4-hydroxy-phenyl)-1H-pyrazolo[3,4-b]pyridin-4-yl]-piperazin-1-yl-methanone], 97%.
For `CN(C)C(=O)c1ccc(/C=C/c2n[nH]c3nc(-c4ccc(O)cc4)cc(C(=O)N4CCNCC4)c23)cc1` [Example 66, 4-{(E)-2-[6-(4-Hydroxy-phenyl)-4-(piperazine-1-carbonyl)-1H-pyrazolo[3,4-b]pyridin-3-yl]-vinyl}-N,N-dimethyl-benzamide] the value was 99%; for `CCOc1ccc(/C=C/c2n[nH]c3nc(-c4ccc(O)cc4)cc(C(=O)N4CCNCC4)c23)cc1` [Example 67, [3-[(E)-2-(4-Ethoxy-phenyl)-vinyl]-6-(4-hydroxy-phenyl)-1 H-pyrazolo[3,4-b]pyridin-4-yl]-piperazin-1-yl-methanone], 99%; for `O=C(c1cc(-c2ccc(O)cc2)nc2[nH]nc(/C=C/c3ccccc3C(F)(F)F)c12)N1CCNCC1` [Example 68, {6-(4-Hydroxy-phenyl)-3-[(E)-2-(2-trifluoromethyl-phenyl)-vinyl]-1H-pyrazolo[3,4-b]pyridin-4-yl}-piperazin-1-yl-methanone], 60%.
Take `Cc1ccccc1/C=C/c1n[nH]c2nc(-c3ccc(O)cc3)cc(C(=O)N3CCNCC3)c12` [Example 69, [6-(4-Hydroxy-phenyl)-3-((E)-2-o-tolyl-vinyl)-1H-pyrazolo[3,4-b]pyridin-4-yl]-piperazin-1-yl-methanone]: the inhibition at 1.14 µM stood at 94%.
For `O=C(c1cc(-c2ccc(O)cc2)nc2[nH]nc(/C=C/c3cc(Cl)cc(Cl)c3)c12)N1CCNCC1` [Example 70, [3-[(E)-2-(3,5-Dichloro-phenyl)-vinyl]-6-(4-hydroxy-phenyl)-1H-pyrazolo[3,4-b]pyridin-4-yl]-piperazin-1-yl-methanone] the value was 98%; for `O=C(c1cc(-c2ccc(O)cc2)nc2[nH]nc(/C=C/c3cccc(F)c3)c12)N1CCNCC1` [Example 71, [3-[(E)-2-(3-Fluoro-phenyl)-vinyl]-6-(4-hydroxy-phenyl)-1H-pyrazolo[3,4-b]pyridin-4-yl]-piperazin-1-yl-methanone], 96%; for `O=C(c1cc(-c2ccc(O)cc2)nc2[nH]nc(/C=C/c3ccccc3F)c12)N1CCNCC1` [Example 72, [3-[(E)-2-(2-Fluoro-phenyl)-vinyl]-6-(4-hydroxy-phenyl)-1H-pyrazolo[3,4-b]pyridin-4-yl]-piperazin-1-yl-methanone], 99%.
